Laboratory results: ChEMBL document CHEMBL1201862, “PubChem BioAssay data set” (2004)
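In this assay, cells in 96-well plates receive the compound at five concentrations for 48 hours. Endpoints are linearly interpolated between the surrounding concentrations. GI50 is the concentration that inhibits growth by half.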 The source made the active and inactive calls. No stated cut-off is given here; in the data, active = GI50 up to about 1.1 µM and inactive = higher. Non-standard residues stand in square brackets, D forms with d. Residues, ends and D or L forms follow the SMILES beside them. ξ: configuration not given here. *: point of attachment. ξHyp = O=C(O)C1CC(O)CN1; Cbz = O=C(OCc1ccccc1)*

Legend:
Assay in all cases: growth of human tumour cells (NCI), 48 h
[1] = tested on: HCT-15
[2] = tested on: MDA-MB-435
[3] = tested on: UACC-62
[4] = tested on: SK-MEL-28
[5] = tested on: RPMI-8226
[6] = tested on: A498
[7] = tested on: LOX IMVI
[8] = tested on: HL-60
[9] = tested on: SF-268
[10] = tested on: RXF 393
[11] = tested on: MDA-MB-231
[12] = tested on: HOP-62
[13] = tested on: OVCAR-3
[14] = tested on: TK-10
[15] = tested on: PC-3
[16] = tested on: SN12C
[17] = tested on: Malme-3M
[18] = tested on: Hs-578T
[19] = tested on: 786-0
[20] = tested on: SNB-75

Row | Structure (SMILES) | GI50 [1] [µM] | GI50 [2] | GI50 [3] | GI50 [4] | GI50 [5] | GI50 [6] | GI50 [7] | GI50 [8] | GI50 [9] | GI50 [10] | GI50 [11] | GI50 [12] | GI50 [13] | GI50 [14] | GI50 [15] | GI50 [16] | GI50 [17] | GI50 [18] | GI50 [19] | GI50 [20]
1 | C=CCOc1ccccc1/N=N/C(C#N)=N\Nc1ccccc1OCC=C | > 100 | 41.9 µM (inactive) | > 100 µM (inactive) | > 100 µM (inactive) | > 100 µM (inactive) | > 100 µM (inactive) | > 100 µM (inactive) | > 100 µM (inactive) | > 100 µM (inactive) | > 100 µM (inactive) | > 100 µM (inactive) | > 100 µM (inactive) | > 100 µM (inactive) | > 100 µM (inactive) | > 100 µM (inactive) | > 100 µM (inactive) | > 100 µM (inactive) | > 100 µM (inactive) | > 100 µM (inactive) | > 100 µM (inactive)
2 | NC(=O)CNC(=O)C1CC(O)CN1C(=O)OCc1ccccc1 (stereo not given) (Cbz-[ξHyp]-Gly-NH2) | > 100 | > 100 µM (inactive) | > 100 µM (inactive) | > 100 µM (inactive) | > 100 µM (inactive) | > 100 µM (inactive) | > 100 µM (inactive) | > 100 µM (inactive) | 74.6 µM (inactive) | > 100 µM (inactive) | > 100 µM (inactive) | > 100 µM (inactive) | > 100 µM (inactive) | > 100 µM (inactive) | > 100 µM (inactive) | > 100 µM (inactive) | > 100 µM (inactive) | > 100 µM (inactive) | > 100 µM (inactive) | > 100 µM (inactive)
3 | O/N=C\c1c(O)ccc2ccccc12 | 32.2 | 65 µM (inactive) | 41 µM (inactive) | 47.2 µM (inactive) | 49.8 µM (inactive) | 56.2 µM (inactive) | 45.8 µM (inactive) | 14.7 µM (inactive) | 31.6 µM (inactive) | 35.2 µM (inactive) | 46.3 µM (inactive) | 70.1 µM (inactive) | 20.2 µM (inactive) | 40.4 µM (inactive) | 88.3 µM (inactive) | 38.3 µM (inactive) | 12.6 µM (inactive) | > 100 µM (inactive) | 46.2 µM (inactive) | 41.8 µM (inactive)
4 | O=C(O)C1CCc2ccc3ccccc3c2C1c1cccc2ccccc12 (stereo not given) | 19.4 | 48.6 µM (inactive) | 15.1 µM (inactive) | 18.7 µM (inactive) | 27.9 µM (inactive) | 30.8 µM (inactive) | 19.5 µM (inactive) | 26.6 µM (inactive) | 27.9 µM (inactive) | 19 µM (inactive) | 30.2 µM (inactive) | 19 µM (inactive) | 16.3 µM (inactive) | 44.5 µM (inactive) | 19.3 µM (inactive) | 24.2 µM (inactive) | 22.4 µM (inactive) | 33.2 µM (inactive) | 18.2 µM (inactive) | 22.9 µM (inactive)
5 | CCCCCCCCCC[C@H](O)[C@H]1CC[C@@H]([C@@H](O)CC[C@H](O)[C@@H]2CCC(CCCCCCC[C@@H](O)CC3=C[C@H](C)OC3=O)O2)O1 (stereo not given in full) | 3.64 | 1.33 µM (inactive) | 1.02 µM (active) | 1.93 µM (inactive) | 2.52 µM (inactive) | 3.16 µM (inactive) | 0.212 µM (active) | 1.44 µM (inactive) | 1.85 µM (inactive) | 2.66 µM (inactive) | 2.62 µM (inactive) | 1.65 µM (inactive) | 1.35 µM (inactive) | 1.59 µM (inactive) | 1.57 µM (inactive) | 2.94 µM (inactive) | 3.4 µM (inactive) | 1.81 µM (inactive) | 1.79 µM (inactive) | 2.47 µM (inactive)
